Data published in PubChem BioAssay (NCI).
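Briefly, cells in 96-well plates were exposed to five compound concentrations for 48 h, and endpoints were estimated by linear interpolation. The concentration for 50% growth inhibition is given as GI50. The concentration for full growth arrest is given as TGI.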

Tests used:
Experiment in all cases: inhibition of tumour cell growth, NCI panel, 48 h
786-0 renal = tested on: 786-0 renal
SNB-75 CNS = tested on: SNB-75 CNS
NCI-H226 lung = tested on: NCI-H226 lung
OVCAR-5 ovarian = tested on: OVCAR-5 ovarian
LOX IMVI melanoma = tested on: LOX IMVI melanoma
HOP-62 NSCLC = tested on: HOP-62 NSCLC
SF-539 CNS = tested on: SF-539 CNS
SK-MEL-5 melanoma = tested on: SK-MEL-5 melanoma
ACHN renal = tested on: ACHN renal
CAKI-1 renal = tested on: CAKI-1 renal

SMILES: CCN1C(=O)N(c2c(F)c(OC)cc(OC)c2F)Cc2cnc3[nH]c(CN4CCOCC4)cc3c21
- GI50 (786-0 renal): 2.84 µM
- TGI (786-0 renal): 30.1 µM
- GI50 (SNB-75 CNS): 1.13 µM
- TGI (SNB-75 CNS): 26.5 µM
- GI50 (NCI-H226 lung): 0.8 µM
- TGI (NCI-H226 lung): > 100 µM
- GI50 (OVCAR-5 ovarian): 9.23 µM
- TGI (OVCAR-5 ovarian): > 100 µM
- GI50 (LOX IMVI melanoma): 2.37 µM
- TGI (LOX IMVI melanoma): > 100 µM
- GI50 (HOP-62 NSCLC): 2.35 µM
- TGI (HOP-62 NSCLC): > 100 µM
- GI50 (SF-539 CNS): 1.01 µM
- TGI (SF-539 CNS): 13.7 µM
- GI50 (SK-MEL-5 melanoma): 16.9 µM
- TGI (SK-MEL-5 melanoma): > 100 µM
- GI50 (ACHN renal): 1.02 µM
- TGI (ACHN renal): 14.1 µM
- GI50 (CAKI-1 renal): 0.528 µM
- TGI (CAKI-1 renal): > 100 µM

SMILES: CCOc1ccc(NC(=O)C2=C(C)NC(C)=C(C(=O)Nc3ccc(OCC)cc3)C2c2ccc([N+](=O)[O-])cc2)cc1
- TGI (786-0 renal): > 100 µM
- TGI (SNB-75 CNS): > 100 µM
- TGI (NCI-H226 lung): > 100 µM
- TGI (OVCAR-5 ovarian): 86.9 µM
- TGI (LOX IMVI melanoma): > 100 µM
- TGI (HOP-62 NSCLC): > 100 µM
- TGI (SF-539 CNS): > 100 µM
- TGI (SK-MEL-5 melanoma): 74.3 µM
- TGI (ACHN renal): 87.4 µM
- TGI (CAKI-1 renal): > 100 µM

SMILES: CC(C)(C)c1ccc(-c2nnc(SCc3ccc(Cl)cc3)n2-c2cccc(C(F)(F)F)c2)cc1
- TGI (786-0 renal): > 100 µM
- TGI (SNB-75 CNS): > 94.1 µM
- TGI (NCI-H226 lung): 97.3 µM
- TGI (OVCAR-5 ovarian): > 96.1 µM
- TGI (LOX IMVI melanoma): > 100 µM
- TGI (HOP-62 NSCLC): > 100 µM
- TGI (SF-539 CNS): > 100 µM
- TGI (SK-MEL-5 melanoma): > 100 µM
- TGI (ACHN renal): > 100 µM
- TGI (CAKI-1 renal): > 100 µM

SMILES: Cn1cc(C(=O)C2CCCCC2)ccc1=O
- TGI (786-0 renal): > 100 µM
- TGI (SNB-75 CNS): > 100 µM
- TGI (NCI-H226 lung): > 100 µM
- TGI (OVCAR-5 ovarian): > 100 µM
- TGI (LOX IMVI melanoma): > 100 µM
- TGI (HOP-62 NSCLC): > 100 µM
- TGI (SF-539 CNS): > 100 µM
- TGI (SK-MEL-5 melanoma): > 100 µM
- TGI (ACHN renal): > 100 µM
- TGI (CAKI-1 renal): > 100 µM

SMILES: CC(O)CN(CCN(CC(C)O)CC(C)O)CC(C)O.O=[N+]([O-])O.[Cu+2] (stereo not drawn)
- GI50 (786-0 renal): > 100 µM
- TGI (786-0 renal): > 100 µM
- GI50 (SNB-75 CNS): > 100 µM
- TGI (SNB-75 CNS): > 100 µM
- GI50 (NCI-H226 lung): > 100 µM
- TGI (NCI-H226 lung): > 100 µM
- GI50 (OVCAR-5 ovarian): > 100 µM
- TGI (OVCAR-5 ovarian): > 100 µM
- GI50 (LOX IMVI melanoma): > 100 µM
- TGI (LOX IMVI melanoma): > 100 µM
- GI50 (HOP-62 NSCLC): > 100 µM
- TGI (HOP-62 NSCLC): > 100 µM
- GI50 (SF-539 CNS): > 100 µM
- TGI (SF-539 CNS): > 100 µM
- GI50 (SK-MEL-5 melanoma): 24.3 µM
- TGI (SK-MEL-5 melanoma): 58.2 µM
- GI50 (ACHN renal): > 100 µM
- TGI (ACHN renal): > 100 µM
- GI50 (CAKI-1 renal): > 100 µM
- TGI (CAKI-1 renal): > 100 µM

SMILES: Nc1nc(Cl)nc2c1ncn2C1O[C@H](CO)[C@@H](O)[C@@H]1F (stereo partly drawn)
- GI50 (786-0 renal): 0.092 µM
- TGI (786-0 renal): 0.486 µM
- GI50 (SNB-75 CNS): 2.25 µM
- TGI (SNB-75 CNS): > 100 µM
- GI50 (NCI-H226 lung): 0.329 µM
- TGI (NCI-H226 lung): 37.5 µM
- GI50 (OVCAR-5 ovarian): 3 µM
- TGI (OVCAR-5 ovarian): > 100 µM
- GI50 (LOX IMVI melanoma): 0.468 µM
- TGI (LOX IMVI melanoma): > 100 µM
- GI50 (HOP-62 NSCLC): 0.239 µM
- TGI (HOP-62 NSCLC): 20.6 µM
- GI50 (SF-539 CNS): 3.64 µM
- TGI (SF-539 CNS): > 37.9 µM
- GI50 (SK-MEL-5 melanoma): 0.34 µM
- TGI (SK-MEL-5 melanoma): > 100 µM
- GI50 (ACHN renal): 0.33 µM
- GI50 (CAKI-1 renal): 0.326 µM

SMILES: O=Nc1c(-c2cccc([N+](=O)[O-])c2)nc2ncccn12
- GI50 (786-0 renal): 17.6 µM
- TGI (786-0 renal): 54.7 µM
- GI50 (SNB-75 CNS): 10.9 µM
- TGI (SNB-75 CNS): 23.8 µM
- GI50 (NCI-H226 lung): 16.2 µM
- TGI (NCI-H226 lung): 37 µM
- GI50 (OVCAR-5 ovarian): 18.5 µM
- TGI (OVCAR-5 ovarian): 39.1 µM
- GI50 (LOX IMVI melanoma): 11.6 µM
- TGI (LOX IMVI melanoma): 27 µM
- GI50 (HOP-62 NSCLC): 20.9 µM
- TGI (HOP-62 NSCLC): 48.7 µM
- GI50 (SF-539 CNS): 15.8 µM
- TGI (SF-539 CNS): 31 µM
- GI50 (SK-MEL-5 melanoma): 15.2 µM
- TGI (SK-MEL-5 melanoma): 32.2 µM
- GI50 (ACHN renal): 8.73 µM
- TGI (ACHN renal): 23.2 µM
- GI50 (CAKI-1 renal): 10.4 µM
- TGI (CAKI-1 renal): 22.6 µM

SMILES: O=C1c2cccnc2-c2nc(-c3ccc([N+](=O)[O-])cc3)cc3c2c1nc1ccccc13
- GI50 (786-0 renal): 10.4 µM
- TGI (786-0 renal): 40.1 µM
- GI50 (SNB-75 CNS): 4.43 µM
- TGI (SNB-75 CNS): 12.1 µM
- GI50 (NCI-H226 lung): 9.63 µM
- TGI (NCI-H226 lung): 33.4 µM
- GI50 (OVCAR-5 ovarian): 12.5 µM
- TGI (OVCAR-5 ovarian): 27.5 µM
- GI50 (LOX IMVI melanoma): 2.28 µM
- TGI (LOX IMVI melanoma): > 100 µM
- GI50 (HOP-62 NSCLC): 12.2 µM
- TGI (HOP-62 NSCLC): 28.3 µM
- GI50 (SF-539 CNS): 3.05 µM
- TGI (SF-539 CNS): 11.3 µM
- GI50 (SK-MEL-5 melanoma): 0.825 µM
- TGI (SK-MEL-5 melanoma): 2.45 µM
- GI50 (ACHN renal): 5.03 µM
- TGI (ACHN renal): 30 µM
- GI50 (CAKI-1 renal): 13.8 µM
- TGI (CAKI-1 renal): > 100 µM
